The results in this text go back to PMC7665192, “A natriuretic peptide from Arabidopsis thaliana (AtPNP-A) can modulate catalase 2 activity” (Scientific Reports, 2020).

The target of the assay is T1, bovine liver CAT (Bos taurus, UniProt P00432).
T1 construct: bovine liver CAT (C-40; Sigma); purchased Sigma C-40; host or cells: bovine liver (tissue-derived enzyme)
T1 sequence (P00432 2-527 limits assumed): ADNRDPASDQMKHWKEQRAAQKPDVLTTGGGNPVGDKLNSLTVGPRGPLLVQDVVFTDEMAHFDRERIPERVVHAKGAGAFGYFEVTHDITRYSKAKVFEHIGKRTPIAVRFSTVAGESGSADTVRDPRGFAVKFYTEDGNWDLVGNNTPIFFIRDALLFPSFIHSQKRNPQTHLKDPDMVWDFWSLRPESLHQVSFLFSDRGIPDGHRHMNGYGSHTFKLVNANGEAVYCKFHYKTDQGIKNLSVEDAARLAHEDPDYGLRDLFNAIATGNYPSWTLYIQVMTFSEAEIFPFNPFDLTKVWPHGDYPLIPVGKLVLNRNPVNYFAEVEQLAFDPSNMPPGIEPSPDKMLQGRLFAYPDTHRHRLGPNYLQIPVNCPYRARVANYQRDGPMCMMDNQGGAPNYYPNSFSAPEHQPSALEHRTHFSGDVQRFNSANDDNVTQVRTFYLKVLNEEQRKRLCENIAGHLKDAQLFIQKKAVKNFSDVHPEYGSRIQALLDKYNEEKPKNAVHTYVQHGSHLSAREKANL
The assay can be described thus: SPR kinetic analysis, bovine liver CAT immobilized on CM5 chip. Type of assay: binding. Here is the method:
SPR experiments were performed at 20 °C on Biacore T100 instrument operated using Biacore T100 control software (version 2.0.2, GE Healthcare Lifesciences) using Series S CM5 or NTA sensor chips as described in[21]. Kinetic analyses were performed at the flow of 100 μL min^−1 with pAtPNP-A (at 3.78 μM and consecutive twofold dilutions; 11 injections included) employed as a ligand and bovine liver CAT (C-40; Sigma) used as an analyte and immobilized on the active surface of the Series S CM5 sensor chip with amine coupling kit, while the surface regeneration was done with solution of glycine, pH 2.0, and the final sensorgram was generated with Scrubber (BioLogic Software Pty Ltd).

Positions of bridges follow the written chain, without caps; N, C: chain ends. Residues, ends and D or L forms follow the SMILES beside them. *: point of attachment. Biotin = O=C1N[C@H]2[C@H](CS[C@H]2CCCCC(=O)*)N1

`CC(C)C[C@@H]1NC(=O)[C@H](CC(N)=O)NC(=O)[C@H](CC(N)=O)NC(=O)[C@H](CCCCN)NC(=O)[C@H](C(C)C)NC(=O)CNC(=O)[C@H](C(C)C)NC(=O)[C@H](C(C)C)NC(=O)[C@H](CC(C)C)NC(=O)[C@H]([C@@H](C)O)NC(=O)[C@H](CCC(=O)O)NC(=O)[C@H](CCCNC(=N)N)NC(=O)[C@H](CCC(N)=O)NC(=O)[C@H]([C@@H](C)O)NC(=O)CNC(=O)[C@H](Cc2ccc(O)cc2)NC(=O)[C@@H](NC(=O)[C@H](C)NC(=O)[C@H](CO)NC(=O)[C@H](CCCNC(=N)N)NC(=O)[C@@H](NC(=O)[C@H](Cc2ccc(O)cc2)NC(=O)[C@@H]2CCCN2)[C@@H](C)O)CSSC[C@@H](C(=O)NCC(=O)N[C@@H](CCCNC(=N)N)C(=O)N[C@@H](CCCNC(=N)N)C(=O)N[C@@H](Cc2ccc(O)cc2)C(=O)N[C@@H](CCCNC(=N)N)C(=O)N[C@H](C(=O)N[C@@H](CCCNC(=N)N)C(=O)N[C@@H](CCCCNC(=O)CCCC[C@@H]2SC[C@@H]3NC(=O)N[C@@H]32)C(=O)O)C(C)C)NC(=O)[C@H](C)NC(=O)[C@H](CCCNC(=N)N)NC(=O)CNC(=O)[C@H](CC(N)=O)NC(=O)[C@H](CCC(N)=O)NC(=O)[C@H](Cc2c[nH]c3ccccc23)NC1=O` [pAtPNP-A] (H-PYTRSACYGTQRETLVVGVKNNLWQNGRACGRRYRVRK(Biotin)-OH; disulfide 7-30; N-terminus and C-terminus assumed): under “SPR kinetic fit, 20 °C”, the “Chi2, average squared residual” value turned out to be 10.4 RU2 and the “U-value, uniqueness value for kinetic rate constants” value was 2. Besides, the “Specificity of binding to bovine CAT” value (SPR, both ligand-analyte configurations, amine coupling) is “points to a specific interaction”.
